{"source": "patent US8652518B2", "about": "“Compositions and methods for the prevention and treatment of diseases or conditions associated with oxidative stress, inflammation, and metabolic dysregulation” (priority 2012, dated 2014)", "key": {"[1]": {"system": "thyroid nodule localized to the right side of the thyroid gland", "experiment": "Case 2: subject with thyroid nodule given the preferred embodiment", "assay_type": "in vivo", "conditions": "increasing doses, before the preferred embodiment", "description": "[…]"}, "[2]": {"system": "atrophic or neovascular AMD", "conditions": "group with the highest dietary intake of either carotenoid; cited from earlier work"}, "MMP2": {"system": "MMP2", "conditions": "mice with the highest survival rates; cited from earlier work"}, "bFGF": {"system": "bFGF", "conditions": "mice with the highest survival rates; cited from earlier work"}, "sarcoma S-180 cells": {"system": "sarcoma S-180 cells", "conditions": "high dose; cited from earlier work"}, "VEGF": {"system": "VEGF", "conditions": "mice with the highest survival rates; cited from earlier work"}}}
{"smiles": "N[C@@H](Cc1cc(I)c(Oc2cc(I)c(O)c(I)c2)c(I)c1)C(=O)O", "note": "[levothyroxine sodium]", "values": [{"measurement": "effect on growth of the thyroid nodule", "setting": "[1]", "value": "did not seem to inhibit the growth of the nodule"}]}
{"smiles": "CC1=C[C@H](O)CC(C)(C)[C@H]1/C=C/C(C)=C/C=C/C(C)=C/C=C/C=C(C)/C=C/C=C(C)/C=C/C1=C(C)C[C@@H](O)CC1(C)C", "note": "[lutein]", "values": [{"measurement": "reduction in the risk of developing atrophic or neovascular AMD", "setting": "[2]", "value": "forty"}]}
{"smiles": "O=C1O[C@H]([C@@H](O)CO)C(O)=C1O", "note": "[vitamin C, ascorbic acid]", "values": [{"measurement": "inhibition of expression of MMP2 gene", "setting": "MMP2", "value": 4, "unit": "times"}, {"measurement": "inhibition of expression of bFGF gene", "setting": "bFGF", "value": 0.3, "unit": "times"}, {"measurement": "increase of survival rate as compared to control models", "setting": "sarcoma S-180 cells", "value": 20, "unit": "%"}, {"measurement": "inhibition of expression of VEGF gene", "setting": "VEGF", "value": 7, "unit": "times"}]}
{"smiles": "CC1=C(/C=C/C(C)=C/C=C/C(C)=C/C=C/C=C(C)/C=C/C=C(C)/C=C/C2=C(C)C[C@@H](O)CC2(C)C)C(C)(C)C[C@H](O)C1", "note": "[zeaxanthin]", "values": [{"measurement": "reduction in the risk of developing atrophic or neovascular AMD", "setting": "[2]", "value": "forty"}]}
